Laboratory results as given in patent US10829520B2, “Beta-hairpin peptidomimetics” (POLYPHOR AG, priority 2015, dated 2020).
Where a SMILES comes first, the peptide text is derived from it. Bridges are numbered along the chain shown (N, C = ends). Roman numbers before positions name the chains, in order. [ ]: non-standard residue; d: D form. Hyp = O=C(O)[C@@H]1C[C@@H](O)CN1; Tle = CC(C)(C)[C@H](N)C(=O)O; dDab = NCC[C@@H](N)C(=O)O; Nle = CCCC[C@H](N)C(=O)O; Orn = NCCC[C@H](N)C(=O)O; Dab = NCC[C@H](N)C(=O)O; dAze = O=C(O)[C@H]1CCN1

Assays:
Format in all cases: cell-based
[1] = test system: Acinetobacter baumannii 872842; details: 872842
[2] = test system: Pseudomonas aeruginosa ATCC 27853; details: ATCC 27853
Method in brief: (§1)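 MIC in μg/mL; CLSI microdilution; cation-adjusted Mueller-Hinton II with Polysorbate 80 (0.002%); 10^6 CFU/mL; 35° C, 18-20 h.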

[3] = test system: Klebsiella pneumoniae SSI #3010; details: SSI #3010
Method in brief: as §1

[4] = test system: Escherichia coli 926415; details: 926415
[5] = test system: Acinetobacter baumannii DSM 30008; details: DSM 30008
Method in brief: as §1

[6] = test system: Escherichia coli ATCC 25922; details: ATCC 25922
Method in brief: as §1

[7] = test system: Klebsiella pneumoniae 968733; details: 968733
[8] = test system: human red blood cells (hRBC); test: Hemolysis of human red blood cells; details: red cells of human, 1 h
Method in brief: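 Percent hemolysis = OD540 of peptide-treated supernatant relative to the 2.5% Triton X-100 (100%) control, PBS containing 0.001% acetic acid defining 0%. Peptides tested at 100 μg/mL against 20% (v/v) washed human RBC, 1 h, 37 °C, 300 rpm.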

Structure (SMILES): CCCC[C@@H]1NC(=O)[C@@H]2CCCN2C(=O)[C@H]2CCCN2C(=O)[C@H](CO)NC(=O)[C@H](CO)NC(=O)[C@H](C(C)(C)C)NC(=O)[C@@H](NC(=O)[C@@H](N)Cc2c[nH]c3ccccc23)CSSC[C@@H](C(=O)N[C@H](CCN)C(=O)N[C@@H](CCN)C(=O)N[C@H](CCN)C(=O)N[C@H]2CCNC(=O)[C@H]([C@@H](C)O)NC(=O)[C@H](CCN)NC(=O)[C@H](CCN)NC(=O)[C@H](CC(C)C)NC(=O)[C@@H](Cc3ccccc3)NC(=O)[C@H](CCN)NC2=O)NC(=O)[C@H](Cc2ccc(O)cc2)NC(=O)[C@H](CO)NC1=O [Ex. 106] (H-WC[Tle]SS[dP]P[Nle]SYC[dDab][Dab][dDab][Dab][Dab][dF]L[Dab][Dab]T; disulfide 2-11; lactam 15-C)
- Acinetobacter baumannii 872842 MIC [1]: 0.125 µg/mL
- Pseudomonas aeruginosa ATCC 27853 MIC [2]: 0.25 µg/mL
- Klebsiella pneumoniae SSI #3010 MIC [3]: 0.125 µg/mL
- Escherichia coli 926415 MIC [4]: 0.125 µg/mL
- Acinetobacter baumannii DSM 30008 MIC [5]: 0.25 µg/mL
- Escherichia coli ATCC 25922 MIC [6]: 0.125 µg/mL
- Klebsiella pneumoniae 968733 MIC [7]: 0.5 µg/mL
- Hemolysis at 100 μg/mL ([8]; 100 μg/mL): 1%

Structure (SMILES): CCCC[C@@H]1NC(=O)[C@@H]2CCCN2C(=O)[C@H]2CCCN2C(=O)[C@H](CO)NC(=O)[C@H](C)NC(=O)[C@H](C(C)(C)C)NC(=O)[C@H](CCN)NC(=O)[C@H](Cc2c[nH]c3ccccc23)NC(=O)[C@@H](NC(C)=O)CSSC[C@@H](C(=O)N[C@@H](CCN)C(=O)N[C@@H](CCN)C(=O)N[C@H]2CCNC(=O)[C@H]([C@@H](C)O)NC(=O)[C@H](CCN)NC(=O)[C@H](CCN)NC(=O)[C@H](CC(C)C)NC(=O)[C@@H](Cc3ccccc3)NC(=O)[C@H](CCN)NC2=O)NC(=O)[C@H](CCCN)NC(=O)[C@H](CCN)NC(=O)[C@H](Cc2ccc(O)cc2)NC(=O)[C@H](CO)NC1=O [Ex. 61] (Ac-CW[Dab][Tle]AS[dP]P[Nle]SY[Dab][Orn]C[Dab][Dab][Dab][Dab][dF]L[Dab][Dab]T; disulfide 1-14; lactam 17-C)
- Acinetobacter baumannii 872842 MIC [1]: 1 µg/mL
- Pseudomonas aeruginosa ATCC 27853 MIC [2]: 0.25 µg/mL
- Klebsiella pneumoniae SSI #3010 MIC [3]: 1 µg/mL
- Escherichia coli 926415 MIC [4]: 2 µg/mL
- Acinetobacter baumannii DSM 30008 MIC [5]: 1 µg/mL
- Escherichia coli ATCC 25922 MIC [6]: 0.5 µg/mL
- Klebsiella pneumoniae 968733 MIC [7]: 8 µg/mL
- Hemolysis at 100 μg/mL ([8]; 100 μg/mL): <1%

Structure (SMILES): CC(=O)N[C@@H](Cc1c[nH]c2ccccc12)C(=O)N[C@@H](C)C(=O)N[C@H](C(=O)N[C@H]1CSSC[C@@H](C(=O)N[C@@H](Cc2ccc(O)cc2)C(=O)N[C@@H](C)C(=O)N[C@@H](CCCN)C(=O)N[C@H](CCN)C(=O)N[C@@H](CCN)C(=O)N[C@H]2CCNC(=O)[C@H]([C@@H](C)O)NC(=O)[C@H](CCN)NC(=O)[C@H](CCN)NC(=O)[C@H](CC(C)C)NC(=O)[C@@H](Cc3ccccc3)NC(=O)[C@H](CCN)NC2=O)NC(=O)[C@H](CC(C)C)NC(=O)[C@H](CCN)NC(=O)[C@H]2CCCN2C(=O)[C@H](C(C)C)NC1=O)C(C)C [Ex. 120] (Ac-WAVCV[dP][Dab]LCYA[Orn][dDab][Dab][Dab][Dab][dF]L[Dab][Dab]T; disulfide 4-9; lactam 15-C)
- Acinetobacter baumannii 872842 MIC [1]: 0.25 µg/mL
- Pseudomonas aeruginosa ATCC 27853 MIC [2]: 1 µg/mL
- Klebsiella pneumoniae SSI #3010 MIC [3]: 1 µg/mL
- Escherichia coli 926415 MIC [4]: 2 µg/mL
- Acinetobacter baumannii DSM 30008 MIC [5]: 0.25 µg/mL
- Escherichia coli ATCC 25922 MIC [6]: 1 µg/mL
- Klebsiella pneumoniae 968733 MIC [7]: 8 µg/mL
- Hemolysis at 100 μg/mL ([8]; 100 μg/mL): <1%

Structure (SMILES): CC(C)C[C@@H]1NC(=O)[C@@H](CC(C)C)NC(=O)[C@H](CCN)NC(=O)[C@@H](NC(=O)[C@H](CCN)NC(=O)[C@@H](NC(=O)[C@H](CCN)NC(=O)[C@H](CCN)NC(=O)[C@@H]2CSSC[C@H](NC(=O)[C@@H](N)Cc3c[nH]c4ccccc34)C(=O)N[C@@H](C(C)C)C(=O)N[C@@H](C)C(=O)N[C@@H](CO)C(=O)N3CCC[C@@H]3C(=O)N3C[C@H](O)C[C@H]3C(=O)N[C@@H](CC(C)C)C(=O)N[C@@H](CO)C(=O)N[C@@H](Cc3ccc(O)cc3)C(=O)N2)[C@@H](C)O)CCNC(=O)[C@H]([C@@H](C)O)NC(=O)[C@H](CCN)NC(=O)[C@H](CCN)NC1=O [Ex. 123] (H-WCVAS[dP][Hyp]LSYC[Dab][Dab]T[Dab][Dab][Dab][dL]L[Dab][Dab]T; disulfide 2-11; lactam 16-C)
- Acinetobacter baumannii 872842 MIC [1]: 0.0625 µg/mL
- Pseudomonas aeruginosa ATCC 27853 MIC [2]: 1 µg/mL
- Klebsiella pneumoniae SSI #3010 MIC [3]: 0.125 µg/mL
- Escherichia coli 926415 MIC [4]: 0.25 µg/mL
- Acinetobacter baumannii DSM 30008 MIC [5]: 0.25 µg/mL
- Escherichia coli ATCC 25922 MIC [6]: 0.125 µg/mL
- Klebsiella pneumoniae 968733 MIC [7]: 4 µg/mL
- Hemolysis at 100 μg/mL ([8]; 100 μg/mL): <1%

Structure (SMILES): CCCC[C@@H]1NC(=O)[C@@H]2CCCN2C(=O)[C@H]2CCCN2C(=O)[C@H](C(C)C)NC(=O)[C@H](C)NC(=O)[C@H](Cc2ccc(O)cc2)NC(=O)[C@@H](NC(=O)[C@H](Cc2c[nH]c3ccccc23)NC(C)=O)CSSC[C@@H](C(=O)N[C@@H](CCCN)C(=O)N[C@@H](CCN)C(=O)N[C@H]2CCNC(=O)[C@H]([C@@H](C)O)NC(=O)[C@H](CCN)NC(=O)[C@H](CCN)NC(=O)[C@H](CC(C)C)NC(=O)[C@@H](Cc3ccccc3)NC(=O)[C@H](CCN)NC2=O)NC(=O)[C@H](Cc2ccc(O)cc2)NC(=O)[C@H](CO)NC1=O [Ex. 52] (Ac-WCYAV[dP]P[Nle]SYC[Orn][Dab][Dab][Dab][dF]L[Dab][Dab]T; disulfide 2-11; lactam 14-C)
- Acinetobacter baumannii 872842 MIC [1]: 4 µg/mL
- Pseudomonas aeruginosa ATCC 27853 MIC [2]: 4 µg/mL
- Klebsiella pneumoniae SSI #3010 MIC [3]: 0.5 µg/mL
- Escherichia coli 926415 MIC [4]: 3 µg/mL
- Acinetobacter baumannii DSM 30008 MIC [5]: 0.5 µg/mL
- Escherichia coli ATCC 25922 MIC [6]: 0.5 µg/mL
- Klebsiella pneumoniae 968733 MIC [7]: 2 µg/mL
- Hemolysis at 100 μg/mL ([8]; 100 μg/mL): 2%

Structure (SMILES): CC(C)C[C@@H]1NC(=O)[C@@H](CC(C)C)NC(=O)[C@H](CCN)NC(=O)[C@@H](NC(=O)[C@H](CCN)NC(=O)[C@@H](NC(=O)[C@H](CCN)NC(=O)CC[C@@H]2NC(=O)[C@H]([C@@H](C)O)NC(=O)[C@H](Cc3ccc(O)cc3)NC(=O)[C@H]([C@@H](C)O)NC(=O)[C@H](C(C)C)NC(=O)[C@@H]3CCCN3C(=O)[C@H]3CCN3C(=O)[C@H]([C@@H](C)O)NC(=O)[C@H](C)NC(=O)[C@H](C(C)(C)C)NC(=O)[C@H]([C@@H](C)O)NC(=O)[C@H](Cc3c[nH]c4ccccc34)NC(=O)[C@H]([C@@H](C)O)NC(=O)[C@@H]([C@H](C)O)NC2=O)[C@@H](C)O)CCNC(=O)[C@H]([C@@H](C)O)NC(=O)[C@H](CCN)NC(=O)[C@H](CCN)NC1=O [Ex. 100] (I: cyclo(AT[dAze]PVTYTE[dT]TWT[Tle]) / II: [Dab]T[Dab][Dab][Dab][dL]L[Dab][Dab]T; amide I:9-II:N; lactam II:4-II:C)
- Acinetobacter baumannii 872842 MIC [1]: 0.25 µg/mL
- Pseudomonas aeruginosa ATCC 27853 MIC [2]: 0.125 µg/mL
- Klebsiella pneumoniae SSI #3010 MIC [3]: 0.125 µg/mL
- Escherichia coli 926415 MIC [4]: 0.5 µg/mL
- Acinetobacter baumannii DSM 30008 MIC [5]: 0.0625 µg/mL
- Escherichia coli ATCC 25922 MIC [6]: 0.0625 µg/mL
- Klebsiella pneumoniae 968733 MIC [7]: 2 µg/mL
- Hemolysis at 100 μg/mL [8]; 100: 2%
